The values that follow are results of earlier work, collected in US8512957B2, “Toxicity typing using liver stem cells” (Vistagen Therapeutics, Inc., priority 2000, dated 2013).

Molecules are shown by their SMILES.

For data set [1] the following is noted: known toxicity class, printed in first toxicity column (Dev = developmental).
Another data set deals with liver. The note with it: known toxicity of the drug, stated in words.

`CN(CCOc1ccc(CC2SC(=O)NC2=O)cc1)c1ccccn1` (stereo not shown) [rosiglitazone]: the “TOXICITIES EV” value in data set [1] was “tc”.

On to `CCC(=O)O[C@H]1[C@H](O[C@@H]2[C@@H](C)[C@H](O[C@H]3C[C@@](C)(OC)[C@@H](O)[C@H](C)O3)[C@@H](C)C(=O)O[C@H](CC)[C@@](C)(O)[C@H](O)[C@@H](C)C(=O)[C@H](C)C[C@@]2(C)O)O[C@H](C)C[C@@H]1N(C)C` [erythromycin estolate], for which the liver toxicity result in the data set with liver was “known liver toxicity”. On to `CCOC(=O)C(C)(C)Oc1ccc(Cl)cc1` [clofibrate], for which the “TOXICITIES EV” value in data set [1] is listed as “tc”.

On to `Cc1c(C)c2c(c(C)c1O)CCC(C)(COc1ccc(CC3SC(=O)NC3=O)cc1)O2` (stereo not shown) [troglitazone], for which, in the data set on liver, the liver toxicity result is listed as “rare but severe liver toxicity”.
